Experimental data reported in patent publication US11427548B2 (Arvinas Operations, Inc., priority 2015, dated 2022).
Read-outs that look alike come from different tables or passages of the source.

Target: T1, Androgen Receptor (Homo sapiens, UniProt P10275)
T1 construct: endogenous in cells; host or cells: VCaP cells
T1 sequence (P10275 1-920): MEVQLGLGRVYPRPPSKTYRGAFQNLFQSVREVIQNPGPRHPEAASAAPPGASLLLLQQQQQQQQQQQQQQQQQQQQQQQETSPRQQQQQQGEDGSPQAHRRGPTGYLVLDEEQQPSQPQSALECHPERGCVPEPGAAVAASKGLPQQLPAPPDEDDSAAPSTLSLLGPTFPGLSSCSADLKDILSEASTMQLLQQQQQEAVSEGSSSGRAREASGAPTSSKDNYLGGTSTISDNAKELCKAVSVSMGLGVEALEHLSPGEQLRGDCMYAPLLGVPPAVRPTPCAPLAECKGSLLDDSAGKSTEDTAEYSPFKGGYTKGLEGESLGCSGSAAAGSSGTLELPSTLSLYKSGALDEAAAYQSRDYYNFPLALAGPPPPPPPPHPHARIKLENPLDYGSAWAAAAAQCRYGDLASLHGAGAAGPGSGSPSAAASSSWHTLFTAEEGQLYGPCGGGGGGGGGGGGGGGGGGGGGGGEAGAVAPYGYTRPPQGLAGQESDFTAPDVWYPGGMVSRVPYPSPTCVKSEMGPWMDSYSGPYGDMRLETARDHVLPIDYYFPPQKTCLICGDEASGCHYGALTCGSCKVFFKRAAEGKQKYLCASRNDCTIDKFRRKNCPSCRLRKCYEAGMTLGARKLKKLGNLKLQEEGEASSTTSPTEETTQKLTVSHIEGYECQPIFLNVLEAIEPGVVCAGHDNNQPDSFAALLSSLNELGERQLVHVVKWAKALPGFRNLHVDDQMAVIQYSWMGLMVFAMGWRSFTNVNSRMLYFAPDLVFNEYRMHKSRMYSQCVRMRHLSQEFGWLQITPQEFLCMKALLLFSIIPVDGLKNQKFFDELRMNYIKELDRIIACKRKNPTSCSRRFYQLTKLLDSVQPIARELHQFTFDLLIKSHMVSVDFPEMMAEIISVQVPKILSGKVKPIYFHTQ
Assay: Androgen Receptor ELISA assay (PathScan AR ELISA) in VCaP cells: AR degradation, Dmax and DC50
Assay type: cell-based
Method in brief: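 VCaP cells in phenol red-free RPMI with 5% charcoal-stripped FBS were grown at least 3 days, then given compound as 7 half-log doses in 0.1% DMSO with 0.1 nM R1881 for 24 h. Lysates went into a sandwich AR ELISA with TMB read at 450 nm.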

[1] = read-out: VCaP DC50; VCaP cells; Table 34
[2] = VCaP cells; Table 34; read-out: VCaP DC50
[3] = VCaP, VCaP cells; Table 34; read-out: VCaP Dmax (%)

SMILES | Dmax (VCaP, read-out: VCaP Dmax (%)) [%] | DC50 [1] [µM] | DC50 [2] [µM] | Dmax [3] [%]
Cc1ncsc1-c1ccc(CNC(=O)[C@@H]2C[C@@H](O)CN2C(=O)[C@@H](NC(=O)COCC#CCOCCOc2ccc(N3C(=S)N(c4ccc(C#N)c(C(F)(F)F)c4)C(=O)C3(C)C)cc2)C(C)(C)C)cc1 [Example 319] | 26 to 50 | < 0.05 | – | –
Cc1ncsc1-c1ccc(CNC(=O)[C@@H]2C[C@@H](O)CN2C(=O)[C@@H](NC(=O)COCCCCOCCCCOc2cccc(N3C(=S)N(c4ccc(C#N)c(C(F)(F)F)c4)C(=O)C3(C)C)c2)C(C)(C)C)cc1 [Example 320] | 26 to 50 | < 0.05 | – | –
Cc1ncsc1-c1ccc(CNC(=O)[C@@H]2C[C@@H](O)CN2C(=O)[C@@H](NC(=O)COCCCOCCCCOc2cccc(N3C(=S)N(c4ccc(C#N)c(C(F)(F)F)c4)C(=O)C3(C)C)c2)C(C)(C)C)cc1 [Example 321] | 26 to 50 | < 0.05 | – | –
COc1cc(N2C(=O)C(C)(C)N(c3ccc(OCCOc4ccc(OCC(=O)N[C@H](C(=O)N5C[C@H](O)C[C@H]5C(=O)NCc5ccc(-c6scnc6C)cc5)C(C)(C)C)cc4)c(F)c3)C2=S)ccc1C#N [Example 323] | – | – | < 0.05 | 51 to 70
Cc1ncsc1-c1ccc(CNC(=O)[C@@H]2C[C@@H](O)CN2C(=O)[C@@H](NC(=O)CCN2CCC(OCCOc3ccc(N4C(=S)N(c5ccc(C#N)c(C(F)(F)F)c5)C(=O)C4(C)C)cc3)CC2)C(C)(C)C)cc1 [Example 324] | 26 to 50 | 0.051 to 0.5 | – | –
Cc1ncsc1-c1ccc(CNC(=O)[C@@H]2C[C@@H](O)CN2C(=O)[C@@H](NC(=O)COC/C=C\COCCCCOc2ccc(N3C(=S)N(c4ccc(C#N)c(C(F)(F)F)c4)C(=O)C3(C)C)cc2)C(C)(C)C)cc1 [Example 325] | 26 to 50 | < 0.05 | – | –
Cc1ncsc1-c1ccc(CNC(=O)[C@@H]2C[C@@H](O)CN2C(=O)[C@H](C(C)C)N2CC(OCCCOCCCOc3ccc(N4C(=S)N(c5ccc(C#N)c(C(F)(F)F)c5)C(=O)C4(C)C)cc3)=CC2=O)cc1 [Example 329] | 26 to 50 | < 0.05 | – | –
Cc1ncsc1-c1ccc(CNC(=O)[C@@H]2C[C@@H](O)CN2C(=O)[C@@H](NC(=O)COCCCOCCCCNc2ccc(N3C(=S)N(c4ccc(C#N)c(C(F)(F)F)c4)C(=O)C3(C)C)cc2)C(C)(C)C)cc1 [Example 333] | 51 to 70 | < 0.05 | – | –
CC(C)(C)[C@H](NC(=O)COCCCOCCCCOc1ccc(N2C(=S)N(c3ccc(C#N)c(Br)c3)C(=O)C2(C)C)cc1F)C(=O)N1C[C@H](O)C[C@H]1C(=O)NCc1ccc(-c2cnco2)cc1 [Example 334] | – | – | < 0.05 | > 71
CC(C)(C)[C@H](NC(=O)COCCCOCCCCOc1ccc(N2C(=S)N(c3ccc(C#N)c(Cl)c3)C(=O)C2(C)C)c(F)c1)C(=O)N1C[C@H](O)C[C@H]1C(=O)NCc1ccc(-c2cnco2)cc1 [Example 336] | > 71 | < 0.05 | – | –
CC(C)(C)[C@H](NC(=O)COCCCOCCCCOc1ccc(N2C(=S)N(c3ccc(C#N)c(Cl)c3)C(=O)C2(C)C)cc1)C(=O)N1C[C@H](O)C[C@H]1C(=O)NCc1ccc(-c2cnco2)cc1 [Example 337] | > 71 | < 0.05 | – | –
Cc1ncoc1-c1ccc(CNC(=O)[C@@H]2C[C@@H](O)CN2C(=O)[C@@H](NC(=O)COCCCOCCCCOc2ccc(N3C(=S)N(c4cnc(C#N)c(Cl)c4)C(=O)C3(C)C)cc2)C(C)(C)C)cc1 [Example 338] | – | – | < 0.05 | 51 to 70
CC(C)(C)[C@H](NC(=O)COCCCCCOCCn1cc(C(=O)N[C@H]2C(C)(C)[C@H](Oc3ccc(C#N)c(Cl)c3)C2(C)C)cn1)C(=O)N1C[C@H](O)C[C@H]1C(=O)NCc1ccc(-c2cncs2)cc1 [Example 339] | – | – | < 0.05 | > 71
CC(C)(C)[C@H](NC(=O)COCCCOCCCCCOc1ccc(N2C(=S)N(c3ccc(C#N)c(Cl)c3)C(=O)C2(C)C)cc1)C(=O)N1C[C@H](O)C[C@H]1C(=O)NCc1ccc(-c2cnco2)cc1 [Example 345] | 51 to 70 | < 0.05 | – | –
CC(C)(C)[C@H](NC(=O)COCCCCOCCCCOc1ccc(N2C(=S)N(c3ccc(C#N)c(Cl)c3)C(=O)C2(C)C)cc1)C(=O)N1C[C@H](O)C[C@H]1C(=O)NCc1ccc(-c2cnco2)cc1 [Example 346] | 51 to 70 | < 0.05 | – | –
CC(C)(C)[C@H](NC(=O)COCCCCOCCn1cc(C(=O)N[C@H]2C(C)(C)[C@H](Oc3ccc(C#N)c(Cl)c3)C2(C)C)cn1)C(=O)N1C[C@H](O)C[C@H]1C(=O)NCc1ccc(-c2cncs2)cc1 [Example 347] | – | – | < 0.05 | 51 to 70
Cc1ncsc1-c1ccc([C@H](C)NC(=O)[C@@H]2C[C@@H](O)CN2C(=O)[C@@H](NC(=O)COCCCOCCCCOc2ccc(N3C(=S)N(c4cnc(C#N)c(C(F)(F)F)c4)C(=O)C3(C)C)cc2)C(C)(C)C)cc1 [Example 365] | – | – | < 0.05 | > 71
Cc1ncsc1-c1ccc(CNC(=O)[C@@H]2C[C@@H](O)CN2C(=O)[C@H](C)NC(=O)COCCCOCCCCOc2ccc(N3C(=S)N(c4ccc(C#N)c(C(F)(F)F)c4)C(=O)C3(C)C)cc2)cc1 [Example 366] | – | < 0.05 | – | –
CC(C)(C)[C@H](NC(=O)COCCCOCCCCOc1ccc(N2C(=S)N(c3ccc(C#N)c(C(F)(F)F)c3)C(=O)C2(C)C)cc1)C(=O)N1C[C@H](O)C[C@H]1C(=O)NCc1ccc(-c2cnco2)c(F)c1 [Example 367] | 51 to 70 | < 0.05 | – | –
CC(C)(C)[C@H](NC(=O)COCCCOCCCCOc1ccc(N2C(=S)N(c3cc(Cl)c(C#N)cc3F)C(=O)C2(C)C)cc1F)C(=O)N1C[C@H](O)C[C@H]1C(=O)NCc1ccc(-c2cnco2)cc1 [Example 368] | – | < 0.05 | – | –
CC(C)(C)[C@H](NC(=O)COCCCOCCCCOc1ccc(N2C(=S)N(c3cc(Cl)c(C#N)cc3F)C(=O)C2(C)C)cc1)C(=O)N1C[C@H](O)C[C@H]1C(=O)NCc1ccc(-c2cnco2)cc1 [Example 369] | – | < 0.05 | – | –
CC(C)(C)[C@H](NC(=O)COCCCOCCCCOc1ccc(N2C(=S)N(c3ccc(C#N)c(C(F)(F)F)c3)C(=O)C2(C)C)cc1)C(=O)N1C[C@H](O)C[C@H]1C(=O)NCc1ccc(-c2ocnc2F)cc1 [Example 370] | 26 to 50 | < 0.05 | – | –
CC(C)(C)[C@H](NC(=O)COc1ccc(OCCOc2ccc(N3C(=S)N(c4cnc(C#N)c(C(F)(F)F)c4)C(=O)C3(C)C)cc2)cc1)C(=O)N1C[C@H](O)C[C@H]1C(=O)NCc1ccc(-c2cnco2)cc1 [Example 371] | – | – | < 0.05 | > 71
Cc1ncsc1-c1ccc([C@H](C)NC(=O)[C@@H]2C[C@@H](O)CN2C(=O)[C@@H](NC(=O)COCCCCOCCCCOc2ccc(N3C(=S)N(c4ccc(C#N)c(C(F)(F)F)c4)C(=O)C3(C)C)cc2)C(C)(C)C)cc1 [Example 373] | 51 to 70 | < 0.05 | – | –
Cc1ncsc1-c1ccc(CNC(=O)[C@@H]2C[C@@H](O)CN2C(=O)[C@@H](NC(=O)C(C)Oc2ccc(OCCOc3ccc(N4C(=S)N(c5ccc(C#N)c(C(F)(F)F)c5)C(=O)C4(C)C)cc3)cc2)C(C)(C)C)cc1 (stereo partly drawn) [Example 374] | 26 to 50 | < 0.05 | – | –
CC(C)(C)[C@H](NC(=O)COCCCOCCCCOc1ccc(N2C(=S)N(c3ccc(C#N)c(C(F)(F)F)c3)C(=O)C2(C)C)cc1)C(=O)N1C[C@H](O)C[C@H]1C(=O)NCc1ccc(-c2cn[nH]c2)cc1 [Example 376] | 51 to 70 | < 0.05 | – | –
Cc1n[nH]cc1-c1ccc(CNC(=O)[C@@H]2C[C@@H](O)CN2C(=O)[C@@H](NC(=O)COCCCOCCCCOc2ccc(N3C(=S)N(c4ccc(C#N)c(C(F)(F)F)c4)C(=O)C3(C)C)cc2)C(C)(C)C)cc1 [Example 377] | 51 to 70 | 0.051 to 0.5 | – | –
Cc1ncsc1-c1ccc(CNC(=O)[C@@H]2C[C@@H](O)CN2C(=O)[C@@H](NC(=O)COc2ccc3cc(COc4ccc(N5C(=S)N(c6ccc(C#N)c(C(F)(F)F)c6)C(=O)C5(C)C)cc4)ccc3c2)C(C)(C)C)cc1 [Example 378] | 51 to 70 | < 0.05 | – | –
Cc1ncsc1-c1ccc(CNC(=O)C2C[C@@H](O)CN2C(=O)[C@@H](NC(=O)CN(C)c2ccc(OCCOc3ccc(N4C(=S)N(c5ccc(C#N)c(C(F)(F)F)c5)C(=O)C4(C)C)cc3)cc2)C(C)(C)C)cc1 (stereo partly drawn) [Example 379] | 51 to 70 | < 0.05 | – | –
Cc1ncsc1-c1ccc(CNC(=O)[C@H]2C[C@@H](O)CN2C(=O)[C@@H](NC(=O)[C@@H](C)Oc2ccc(OCCOc3ccc(N4C(=S)N(c5ccc(C#N)c(C(F)(F)F)c5)C(=O)C4(C)C)cc3)cc2)C(C)(C)C)cc1 [Example 381] | 26 to 50 | < 0.05 | – | –
